The values that follow come from patent US9120762B2, “Salts of bicyclo-substituted pyrazolon azo derivatives, preparation method and use thereof” (Jiangsu Hengrui Medicine Co., Ltd., priority 2009, dated 2015).

The nature of series [1]: Solubility assay in water, 0.1% hydrochloric acid and methanol. It counts as physicochemical. The procedure:
The solubility was characterized by:
The term “very soluble” refers to that 1 g (mL) of solute can be dissolved in less than 1 mL of solvent;
The term “freely soluble” refers to that 1 g (mL) of solute can be dissolved in from 1 mL to 10 mL, not including 10 mL of solvent;
The term “soluble” refers to that 1 g (mL) of solute can be dissolved in from 10 mL to 30 mL, not including 30 mL of solvent;
The term “sparingly soluble” refers to that 1g (mL) of solute can be dissolved in from 30 mL to 100 mL, not including 100 mL of solvent;
The term “slightly soluble” refers to that 1g (mL) of solute can be dissolved in from 100 mL to 1000 mL, not including 1000 mL of solvent;
The term “very slightly soluble” refers to that 1g (mL) of solute can be dissolved in from 1000 mL to 10000 mL, not including 10000 mL of solvent;
The term “practically insoluble or insoluble” refers to that 1g (mL) of solute cannot be dissolved completely in 10000 mL of solvent.

For series [2], the target named is T1, human TPOR (Homo sapiens, UniProt P40238).
T1 construct: host or cells: BaF3 (murine pro-B cells), stably transfected, G418-selected
T1 sequence (P40238 26-635): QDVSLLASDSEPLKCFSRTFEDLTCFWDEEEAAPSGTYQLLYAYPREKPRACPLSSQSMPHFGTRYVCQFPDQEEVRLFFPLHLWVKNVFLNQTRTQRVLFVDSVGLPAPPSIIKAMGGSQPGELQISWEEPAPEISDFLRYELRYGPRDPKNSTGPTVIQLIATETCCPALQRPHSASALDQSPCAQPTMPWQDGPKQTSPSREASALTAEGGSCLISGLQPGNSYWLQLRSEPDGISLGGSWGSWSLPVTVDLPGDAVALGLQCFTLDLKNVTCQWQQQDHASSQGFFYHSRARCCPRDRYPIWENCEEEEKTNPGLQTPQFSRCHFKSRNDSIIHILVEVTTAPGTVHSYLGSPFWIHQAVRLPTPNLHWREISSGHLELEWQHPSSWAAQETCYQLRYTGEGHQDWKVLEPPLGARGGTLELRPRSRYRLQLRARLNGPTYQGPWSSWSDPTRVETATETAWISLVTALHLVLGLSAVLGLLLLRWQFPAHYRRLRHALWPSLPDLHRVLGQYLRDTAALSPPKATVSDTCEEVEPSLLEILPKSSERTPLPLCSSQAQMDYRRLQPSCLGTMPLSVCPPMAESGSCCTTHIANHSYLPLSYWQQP
Put plainly: Proliferation effect on BAF3-TPOR cell (CCK-8). The class given is cell-based. As to conditions: rate relative to rhTPO positive control. The procedure: (1) Plasmid constructs: based on the TPO receptor (TPOR) sequence information from Entrez (Gene ID: 4325, Refseq: NM_005373), dual-site mutation was performed on EX-B0010-M02 plasmid by using QuikChange® Multi Site Directed Mutagenesis Kit (Stratagene). The sequence of primers containing multi-sites mutation was designed as follows: […]
The E. coli DH5α competent cells were transformed with mutated plasmid, and positive colonies were picked up through ampicillin selection. The mutation result was confirmed by sequence analysis.
(2) BAF3-TPOR stable transfected cell line: the following method was used to construct the BaF3 cell which stably over-expressed functional human TPOR. The successfully mutated EX-B0010-M02 plasmid ([…]) which expressed human TPOR and screening gene neomycin was transfected into wild-type BaF3 cells (1×10^7) by electroporation at 250V for 18 ms using an electric pulse generator (Electro Square Porator ECM830, BTX Division of Genetronic, Inc. US). The stable transfected cells BAF3-TPOR were selected with G418 (Gibco, US), then incubated in RPMI1640 medium plus 10% FBS (Gibco, US), […] G418, 5 ng/mL, rmIL-3 (Chemicon, US).
(1) Washing cells by centrifugation: a suitable amount of cell suspension was centrifuged at 1000 rpm for 5 minutes, and the supernatant was discarded. 10 mL of cell culture media without IL-3 was added. Then the resulting cell suspension was centrifuged at 1000 rpm for 5 minutes, and the supernatant was discarded.
(2) 1 mL of cell culture media without IL-3 was added to beat upon them to equality, and the number of a suitable amount of cell suspension was counted after dilution.
(3) According to the result of the cell counting, a cell suspension in a concentration of 100,000 cell/mL was prepared.
(4) 100 μL of cell suspension was transferred to each well of 96-well culture plate, and there were 3 parallel wells, that is, there were a blank control group (B), a negative control group (N), a positive control group of TPO (P) and a test compound group (S).
(5) The test compound was dissolved in DMSO to prepare a 10 mM stock solution, and then the solution was diluted with RPMI 1640 medium into a series of test samples at different concentration: 30 μM, 10 μM, 3 μM, 1 μM, 0.3 μM, 0.1 μM, 0.03 μM, 0.01 μM, 0.003 μM, 0.001 μM.
(6) 10 μL of test compound solution was transferred to each well respectively; 1 μL of rhTPO (10 ng/mL) was added to positive control well.
(7) The plates were incubated in an incubator at 5% CO2 and 37° C. for 24 hours.
(8) After incubation, 10 μL of CCK-8 solution was added to each well and the plates were incubated in the incubator for another 24 hours.
(9) OD value was detected at 450 nm by VICTORS (Perkin Elmer 1420-120) plate reader.
(1) The proliferation rate was calculated as follows: Rate=[(S−B)/(P−B)]*100%
S: OD value of wells which contain test compound.
B: OD value of blank control wells
P: OD value of positive control wells
(2) The EC50 value was calculated by Origin 7.0 software.

Series [3] can be described thus: Pharmacokinetics assay in rats. It counts as in vivo, SD rats. As to conditions: SD rats, intragastric, 50 mg/Kg (as free acid); for MRT: read-out: Mean Residence Time MRT; for Tmax: read-out: Time to peak Tmax. As to the method: The compounds of the present disclosure were administrated intragastrically to rats to determine the drug concentration in plasma at different time points by HPLC-UV. The pharmacokinetic behavior of the compounds of the present disclosure was studied and evaluated in rats. […] Healthy adult SD rats, male and female in half, were purchased from SINO-BRITSH SIPPR/BK LAB.ANIMAL LTD., Colo., License number: SCXK (Shanghai) 2003-0002 The test compound was diluted with 1% sodium carboxymethyl cellulose to 5 mg/mL (calculated as the free acid form) of suspension before use. Healthy adult SD rats, male and female in half, were divided into 23 groups. […] The plasma samples were stored at −20° C. until analysis. The rats were fed 2 hours after administration. […] Then the mixture was mixed for 3 minute using a vortexer and centrifuged for 10 minutes at 13,500 rpm. 40 μL of the supernatant was analyzed by HPLC-UV. The compartmental model of pharmacokinetics was fitted for the test compounds and the major pharmacokinetic parameters were calculated in which Cmax and tmax were the actually measured values.

Setting [4] is: 0.1% hydrochloric acid, simulated gastric fluid, 0.1% hydrochloric acid, read-out: solubility.
The mark [5] stands for this setting: both sexes, SD, rat, plasma, po, 50 mg/kg.

In general, solubility refers to the concentration that dissolves in the medium under given conditions. The EC50 is the midpoint of the concentration-response curve. High values mean lower potency in that assay, low ones higher potency in that assay. Broadly, the MRT is the average time that molecules of a dose stay in the body. As a reminder, the Tmax is the time from dosing to the highest level. For orientation: AUC means concentration integrated over time. As usually defined, the half-life is how long it takes for the measured level to halve. As usually defined, the Cmax is the maximum level reached in the sampled fluid or tissue.

Like-named read-outs stand apart in the source and are kept apart here. Where only a bound is given, the exact number is not on record here.

On to `CC1=NN(c2ccc3c(c2)CCC3)C(=O)/C1=N\Nc1cccc(-c2ccc(C(=O)O)o2)c1O` [Example 16a, (Z)-5-{2-hydroxy-3-[N′-(1-indan-5-yl-3-methyl-5-oxo-1,5-dihydro-pyrazol-4-ylidene)-hydrazino]-phenyl}-furan-2-carboxylic acid], for which, in series [1] (setting [4]), the solubility was below 1 µg/mL. This compound returned a solubility in series [1] (methanol) below 1 µg/mL. In series [1] (water), this compound yielded a solubility below 1 µg/mL. For the same compound, the midpoint of the response in series [2], the EC50, lay at 0.1 µM. In series [3] (50 mg/kg), the “Area Under Curve AUC” value is 15000 ± 17200 ng·h/mL, the “Clearance CL/F” value was 49.7 ± 45.8 mL/min/kg, the “Half-Life t½” value is listed as 1.82 ± 0.68 h and the “Plasma Conc. Cmax” value came out at 6810 ± 6230 ng/mL. In series [3] (setting [5]), the MRT was 4.03 ± 2.55 h and the Tmax was 2.75 ± 0.96 h.
As for `CC1=NN(c2ccc3c(c2)CCC3)C(=O)/C1=N\Nc1cccc(-c2cccc(C(=O)O)c2)c1O` [Example 1j, (Z)-2′-hydroxy-3′-[N′-(1-indan-5-yl-3-methyl-5-carbonyl-1,5-dihydro-pyrazol-4-ylidene)-hydrazino]-biphenyl-3-carboxylic acid], in series [1] (setting [4]), the solubility is below 1 µg/mL. Besides, the solubility in series [1] (methanol) was below 1 µg/mL. The solubility in series [1] (water) was below 1 µg/mL. This compound also showed an EC50 in series [2] of 0.2 µM. In series [3] (50 mg/kg), the “Area Under Curve AUC” value amounted to 131000 ± 47000 ng·h/mL, the “Clearance CL/F” value was found to be 0.817 ± 0.583 mL/min/kg, the “Half-Life t½” value worked out at 4.21 ± 1.86 h and the “Mean Residence Time MRT” value is on record as 3.89 ± 1.78 h. Moreover, in series [3] (50 mg/kg), the “Plasma Conc. Cmax” value was 29050 ± 11440 ng/mL and the “Time to peak Tmax” value turned out to be 4.00 ± 1.41 h.
As to `CC1=NN(c2ccc3c(c2)CCC3)C(=O)/C1=N\Nc1cccc(-c2csc(C(=O)O)c2)c1O` [Example 19d, (Z)-4-{2-hydroxy-3-[N′-(1-indan-5-yl-3-methyl-5-oxo-1,5-dihydro-pyrazol-4-ylidene)-hydrazino]-phenyl}-thiophene-2-carboxylic acid], the solubility in series [1] (setting [4]) was below 1 µg/mL. This compound showed a solubility in series [1] (methanol) below 1 µg/mL. Besides, in series [1] (water), the solubility is below 1 µg/mL. Besides, a half-maximal effect in series [2] (EC50) was put at 0.043 µM. In addition, in series [3] (50 mg/kg), the “Area Under Curve AUC” value was found to be 36100 ± 36400 ng·h/mL, the “Clearance CL/F” value came to 24 ± 13.8 mL/min/kg, the “Half-Life t½” value was 1.84 ± 1.05 h and the “Mean Residence Time MRT” value was 3.01 ± 1.99 h. Moreover, in series [3] (50 mg/kg), the “Plasma Conc. Cmax” value was 7910 ± 6840 ng/mL and the “Time to peak Tmax” value is reported as 2.50 ± 0.58 h.
On to `CC1=NN(c2ccc3c(c2)C(C)(C)CC3)C(=O)/C1=N\Nc1cccc(-c2ccc(C(=O)O)o2)c1O` [Example 4h, (Z)-5-(3-{N′-[1-(3,3-dimethyl-indan-5-yl)-3-methyl-5-oxo-1,5-dihydro-pyrazol-4-ylidene]-hydrazino}-2-hydroxy-phenyl)-furan-2-carboxylic acid], for which the solubility in series [1] (setting [4]) was below 1 µg/mL. Besides, the solubility in series [1] (methanol) is below 1 µg/mL. Further, the solubility in series [1] (water, read-out: solubility) was below 1 µg/mL. In addition, the midpoint of the response in series [2], the EC50, lay at 0.032 µM. Moreover, in series [3] (50 mg/kg), the “Area Under Curve AUC” value came out at 9500 ± 8300 ng·h/mL, the “Clearance CL/F” value amounted to 54.3 ± 32.2 mL/min/kg, the “Half-Life t½” value came out at 19.8 ± 16.4 h and the “Mean Residence Time MRT” value was 31.7 ± 24.6 h. Moreover, in series [3] (50 mg/kg), the “Plasma Conc. Cmax” value stood at 1290 ± 380 ng/mL. Moreover, the Tmax in series [3] (setting [5]) stood at 2.5 ± 1 h.
For the compound `CC1=NN(c2ccc3c(c2)CCCC3)C(=O)/C1=N\Nc1cccc(-c2ccc(C(=O)[O-])o2)c1[O-].[Na+].[Na+]` [Example 14, (Z)-5-(2-hydroxy-3-{N′-[3-methyl-5-oxo-1-(5,6,7,8-tetrahydro-naphthalen-2-yl)-1,5-dihydro-pyrazol-4-ylidene]-hydrazino}-phenyl)-furan-2-carboxylic acid disodium salt], the solubility in series [1] (setting [4]) was below 1 µg/mL; in series [1] (methanol, organic solvent or mixture, methanol, read-out: solubility), 3720 µg/mL; in series [1] (water, read-out: solubility), 1880 µg/mL. In series [2], this compound gave an EC50 of 0.019 µM. Further, the Vd/F in series [3] (both sexes, SD, rat, plasma, po, 50 mg/kg, read-out: Apparent Distribution Volume Vz/F) came to 9.54 ± 8.03 L/kg. In series [3] (both sexes, SD, rat, plasma, po, 50 mg/kg, read-out: Area Under Curve AUC), the AUC was found to be 132000 ± 189000 ng·h/mL. Moreover, in series [3] (both sexes, SD, rat, plasma, po, 50 mg/kg, read-out: Half-Life t½ (converted)), the half-life was 4.72 ± 2.82 h. The MRT in series [3] (setting [5]) worked out at 7.2 ± 2.13 h. The Cmax in series [3] (both sexes, SD, rat, plasma, po, 50 mg/kg, read-out: Plasma Conc. Cmax) turned out to be 17800 ± 22600 ng/mL. Also, the time to peak (Tmax) in series [3] (setting [5]) was found to be 5.25 ± 1.5 h. For the same compound, the CL/F in series [3] (both sexes, rat, in vivo, po, read-out: Clearance CL/F (converted)) was 40 mL/min/kg.
